Values joined by “and” are separate entries in the source; they are usually repeats but may differ in a detail not shown here. Identical values can stand only once. Inconclusive results and toxic doses are left out.
Tested on: BDF1 mice, B16 melanoma ip, median survival T/C
Experiment: NCI In Vivo Anticancer Drug Screen. Data for tumor model B16 Melanoma (intraperitoneal) in B6D2F1 (BDF1) mice
Conditions: endpoint: median survival time, higher = longer survival
Summary of the method: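 Mice with transplantable tumors; drug vs vehicle groups; endpoint survival or tumor size; value = T/C.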

[1] = dose: 6.25 mg/kg/injection, schedule: Q01DX009 (ip), vehicle: saline with Tween-80
[2] = dose: 12.5 mg/kg/injection, schedule: Q01DX009 (ip), vehicle: saline with Tween-80
[3] = dose: 25.0 mg/kg/injection, schedule: Q01DX009 (ip), vehicle: saline with Tween-80
[4] = dose: 50.0 mg/kg/injection, schedule: Q01DX009 (ip), vehicle: saline with Tween-80
[5] = dose: 100.0 mg/kg/injection, schedule: Q01DX009 (ip), vehicle: Klucel (hydroxypropylcellulose) (HPC)
[6] = dose: 200.0 mg/kg/injection, schedule: Q01DX009 (ip), vehicle: Klucel (hydroxypropylcellulose) (HPC)
[7] = dose: 50.0 mg/kg/injection, schedule: Q01DX009 (ip), vehicle: Klucel (hydroxypropylcellulose) (HPC)
[8] = dose: 100.0 mg/kg/injection, schedule: Q01DX009 (ip), vehicle: saline with Tween-80
[9] = dose: 400.0 mg/kg/injection, schedule: Q01DX009 (ip), vehicle: Klucel (hydroxypropylcellulose) (HPC)
[10] = dose: 25.0 mg/kg/injection, schedule: Q01DX009 (ip), vehicle: Klucel (hydroxypropylcellulose) (HPC)
[11] = dose: 200.0 mg/kg/injection, schedule: Q01DX009 (ip), vehicle: saline with Tween-80

`CCCCn1c(O)c(C=N)c(=O)n(CCCC)c1=O` was tested, and the T/C (dose: 3.12 mg/kg/injection, schedule: Q01DX009 (ip), vehicle: saline with Tween-80) was 109 % of control and the T/C [1] was 97 % of control.

In the case of `C#CC[N+]12CN3CN(CN(C3)C1)C2`, the T/C (dose: 50.0 mg/kg/injection, schedule: Q01DX009 (ip), vehicle: saline) is reported as 104 % of control, the T/C (dose: 100.0 mg/kg/injection, schedule: Q01DX009 (ip), vehicle: saline) is reported as 100 % of control and the T/C (dose: 200.0 mg/kg/injection, schedule: Q01DX009 (ip), vehicle: saline) is reported as 107 % of control.

`CC(C)CC(NC(=O)OC(C)(C)C)C(=O)ON1C(=O)CCC1=O` (stereo unspecified) was tested, and the T/C [1] was 93 % of control, the T/C [2] was 93 % of control and the T/C [3] was 96 % of control. The T/C [4] was 90 % of control and 92 % of control.

In the case of `CN(C)CCCNC(=O)Nc1ccccc1`, the T/C [5] is reported as 100 % of control and the T/C [6] is reported as 92 % of control.

In the case of `O=C(NC(CS)C(=O)O)OCc1ccccc1` (stereo unspecified), the T/C [7] is reported as 94 % of control and the T/C [5] is reported as 94 % of control.

For `O=C(CCl)NC(Cc1ccc(O)cc1)C(=O)O` (stereo unspecified), the T/C [3] was 105 % of control, the T/C [4] was 101 % of control and the T/C [8] was 95 % of control.

`COc1ccc(/C=C(\NC(C)=O)C(=O)O)cc1` was tested, and the T/C (dose: 100.0 mg/kg/injection, schedule: Q04DX003 (ip), vehicle: Klucel (hydroxypropylcellulose) (HPC)) was 97 % of control, the T/C (dose: 200.0 mg/kg/injection, schedule: Q04DX003 (ip), vehicle: Klucel (hydroxypropylcellulose) (HPC)) was 105 % of control and the T/C (dose: 400.0 mg/kg/injection, schedule: Q04DX003 (ip), vehicle: Klucel (hydroxypropylcellulose) (HPC)) was 91 % of control.

In the case of `CCC(CC)(COS(=O)(=O)c1ccc(C)cc1)COS(=O)(=O)c1ccc(C)cc1`, the T/C [5] is reported as 100 % of control, the T/C [6] is reported as 93 % of control and the T/C [9] is reported as 93 % of control.

With `CN(C)N=Nc1ccccc1` the T/C (dose: 6.25 mg/kg/injection, schedule: Q01DX009 (ip), vehicle: Klucel (hydroxypropylcellulose) (HPC)) was 120 % of control, the T/C (dose: 12.5 mg/kg/injection, schedule: Q01DX009 (ip), vehicle: Klucel (hydroxypropylcellulose) (HPC)) was 112 % of control and 123 % of control and the T/C [10] was 117 % of control.

With `Cc1ccc(C)c(NC(=O)Nc2ccccc2)c1` the T/C [5] was 96 % of control, the T/C [6] was 110 % of control and the T/C [9] was 96 % of control.

`Nc1ccc(N=Nc2ccc(S(=O)(=O)O)cc2)cc1` was tested, and the T/C [3] was 93 % of control, the T/C [4] was 97 % of control and the T/C [8] was 90 % of control and 104 % of control.

In the case of `CC(C)C(=O)[O][Sn]([CH3])([CH3])[CH3]`, the T/C (dose: 0.19 mg/kg/injection, schedule: Q01DX009 (ip), vehicle: saline) is reported as 107 % of control, the T/C (dose: 0.38 mg/kg/injection, schedule: Q01DX009 (ip), vehicle: saline) is reported as 105 % of control and the T/C (dose: 0.75 mg/kg/injection, schedule: Q01DX009 (ip), vehicle: saline) is reported as 100 % of control.

`Cc1ccc(NS(=O)(=O)c2ccccc2)c(C)c1` was tested, and the T/C (dose: 75.0 mg/kg/injection, schedule: Q01DX009 (ip), vehicle: Klucel (hydroxypropylcellulose) (HPC)) was 86 % of control, the T/C (dose: 150.0 mg/kg/injection, schedule: Q01DX009 (ip), vehicle: Klucel (hydroxypropylcellulose) (HPC)) was 87 % of control and the T/C (dose: 300.0 mg/kg/injection, schedule: Q01DX009 (ip), vehicle: Klucel (hydroxypropylcellulose) (HPC)) was 92 % of control.

For `C[CH2][Pb]([CH2]C)([CH2]C)[O]C(=O)c1ccccc1`, the T/C (dose: 0.75 mg/kg/injection, schedule: Q01DX009 (ip), vehicle: Klucel (hydroxypropylcellulose) (HPC)) was 93 % of control and the T/C (dose: 1.5 mg/kg/injection, schedule: Q01DX009 (ip), vehicle: Klucel (hydroxypropylcellulose) (HPC)) was 90 % of control.

In the case of `CCCN(/C=C/C=C/C=[N+](CCC)CCC)CCC`, the T/C (dose: 0.03 mg/kg/injection, schedule: Q01DX009 (ip), vehicle: saline) is reported as 107 % of control, the T/C (dose: 0.05 mg/kg/injection, schedule: Q01DX009 (ip), vehicle: saline) is reported as 109 % of control and the T/C (dose: 0.1 mg/kg/injection, schedule: Q01DX009 (ip), vehicle: saline) is reported as 103 % of control. The T/C (dose: 0.2 mg/kg/injection, schedule: Q01DX009 (ip), vehicle: saline) was 96 % of control.

For `COc1cccc2c1C(=O)c1c(O)c3c(c(O)c1C2=O)C[C@@](O)(C(C)O)C[C@@H]3OC1CC(N2CCC(OC)CC2)C(O)C(C)O1` (stereo partly specified), the T/C (dose: 3.12 mg/kg/injection, schedule: Q01DX001 (ip), vehicle: water) was 112 % of control, the T/C (dose: 6.25 mg/kg/injection, schedule: Q01DX001 (ip), vehicle: water) was 117 % of control and the T/C (dose: 12.5 mg/kg/injection, schedule: Q01DX001 (ip), vehicle: water) was 173 % of control. The T/C (dose: 25.0 mg/kg/injection, schedule: Q01DX001 (ip), vehicle: water) was 165 % of control and 166 % of control and the T/C (dose: 50.0 mg/kg/injection, schedule: Q01DX001 (ip), vehicle: water) was 177 % of control.

For `O=C1OCC2C1Cc1cc(O)c(O)cc1C2c1ccc(O)c(O)c1` (stereo unspecified), the T/C [5] was 112 % of control, the T/C [6] was 94 % of control and the T/C [9] was 105 % of control.

In the case of `CC1(C)N=C(N)N=C(N)N1c1ccc(CCCCc2ccc(Cl)c(S(=O)(=O)F)c2)c(Cl)c1`, the T/C (dose: 8.0 mg/kg/injection, schedule: Q01DX009 (ip), vehicle: saline) is reported as 105 % of control, the T/C (dose: 12.0 mg/kg/injection, schedule: Q01DX009 (ip), vehicle: saline) is reported as 114 % of control and the T/C (dose: 18.0 mg/kg/injection, schedule: Q01DX009 (ip), vehicle: saline) is reported as 118 % of control.

In the case of `O=C(O)/C=C/C(=O)Nc1ccc(N=Nc2ccccc2)cc1`, the T/C [7] is reported as 104 % of control, the T/C [5] is reported as 105 % of control and the T/C [6] is reported as 97 % of control.

With `CC1(C)N=C(N)N=C(N)N1c1cccc(OCCOc2ccc([N+](=O)[O-])cc2)c1` the T/C [10] was 101 % of control, the T/C [7] was 102 % of control and the T/C [5] was 100 % of control. For the same molecule, the T/C [6] was 102 % of control.

`Cc1cccc(C)c1NC(=O)c1cccc(C(=O)Nc2c(C)cccc2C)c1` was tested, and the T/C [5] was 100 % of control, the T/C [6] was 94 % of control and the T/C [9] was 91 % of control.

For `CCN(C(=O)Nc1cccc2ccccc12)c1ccccc1`, the T/C [5] was 102 % of control, the T/C [6] was 88 % of control and the T/C [9] was 91 % of control.

With `OCC(F)(F)C(F)(F)C(F)(F)F` the T/C (dose: 75.0 mg/kg/injection, schedule: Q01DX009 (ip), vehicle: saline) was 105 % of control, the T/C (dose: 150.0 mg/kg/injection, schedule: Q01DX009 (ip), vehicle: saline) was 106 % of control and the T/C (dose: 300.0 mg/kg/injection, schedule: Q01DX009 (ip), vehicle: saline) was 100 % of control.

In the case of `Cc1cc2nc(Cc3ccccc3)[nH]c2cc1C`, the T/C [2] is reported as 102 % of control, the T/C [3] is reported as 105 % of control and the T/C [4] is reported as 94 % of control.

In the case of `O=[N+]([O-])c1ccc2ccccc2c1-c1c([N+](=O)[O-])ccc2ccccc12`, the T/C [4] is reported as 97 % of control, the T/C [8] is reported as 101 % of control and the T/C [11] is reported as 97 % of control.

`CCOC(=O)CN1CCC2CC1c1c([nH]c3ccccc13)C2c1cc2c(cc1OC)N(C)C1C(O)(C(=O)OC)C(OC(C)=O)C3(CC)C=CCN4CCC21C43` (stereo unspecified) was tested, and the T/C (dose: 0.06 mg/kg/injection, schedule: Q01DX009 (ip), vehicle: other) was 96 % of control, the T/C (dose: 0.13 mg/kg/injection, schedule: Q01DX009 (ip), vehicle: other) was 108 % of control and the T/C (dose: 0.5 mg/kg/injection, schedule: Q01DX009 (ip), vehicle: other) was 96 % of control. The T/C (dose: 1.0 mg/kg/injection, schedule: Q01DX009 (ip), vehicle: other) was 104 % of control and the T/C (dose: 2.0 mg/kg/injection, schedule: Q01DX009 (ip), vehicle: other) was 117 % of control.

In the case of `CCN(CC)C1CC(O[C@H]2C[C@](O)(C(C)=O)Cc3c(O)c4c(c(O)c32)C(=O)c2c(OC)cccc2C4=O)OC(C)C1O` (stereo partly specified), the T/C (dose: 0.25 mg/kg/injection, schedule: Q01DX009 (ip), vehicle: water) is reported as 113 % of control and the T/C (dose: 0.5 mg/kg/injection, schedule: Q01DX009 (ip), vehicle: water) is reported as 119 % of control.

For `CCCCCCCCCCCCCCCCCC[N+](C)(C)c1nc(Cl)nc(Cl)n1`, the T/C (dose: 3.13 mg/kg/injection, schedule: Q01DX009 (ip), vehicle: other) was 98 % of control, the T/C (dose: 6.25 mg/kg/injection, schedule: Q01DX009 (ip), vehicle: other) was 100 % of control and the T/C (dose: 12.5 mg/kg/injection, schedule: Q01DX009 (ip), vehicle: other) was 99 % of control.

For `NC(N)=Nc1ccc(C(=O)Oc2ccc([N+](=O)[O-])cc2CN2CCCCC2)cc1`, the T/C (dose: 3.13 mg/kg/injection, schedule: Q01DX009 (ip), vehicle: saline) was 100 % of control and the T/C (dose: 6.25 mg/kg/injection, schedule: Q01DX009 (ip), vehicle: saline) was 100 % of control.

`COc1ccc(-c2ccc(OC)c(OC)c2OC)c(N)c1` was tested, and the T/C [8] was 107 % of control, the T/C [11] was 107 % of control and the T/C (dose: 400.0 mg/kg/injection, schedule: Q01DX009 (ip), vehicle: saline with Tween-80) was 94 % of control.

Reference: PubChem BioAssay AID192 (DTP/NCI, 2004)
